Measurements reported in patent publication US20240294467A1, “USP9X Inhibitors” (ProDeg, LLC, priority 2021, published 2024).
Like-named read-outs stand apart in the source and are kept apart here. Residues, ends and D or L forms follow the SMILES beside them. *: point of attachment. Cbz = O=C(OCc1ccccc1)*

Assays:
Mcl-1 = test: Western blot of Mcl-1 in U937 cells; format: cell-based; conditions: agent alone
Method: After 24 hours treatment with Compound 7A, U937 cells were collected by centrifugation and whole cell lysates were prepared. These lysates were analyzed by Western blot to determine the level of Mcl-1. Western blot analysis was carried out as previously described (Wang et al., 2014 Journal of the American Society of Nephrology DOI: 10.1681/asn.2013060665). The band intensity for Mcl-1 in these samples were normalized to that of tubulin to correct for any inconsistencies in total protein in loading and processing the whole cell lysates.
To investigate the mechanism of action, Western blot analysis was carried out to test the induced degradation of USP9X substrate Mcl-1 by the compounds under the effects of protein synthesis inhibitor cycloheximide and/or proteasome inhibitor MG132. U937 cells were treated with 10 μM cycloheximide for one hour, with 10 μM MG132 for one hour, with the combination of 10 μM cycloheximide and 10 μM MG132 for one hour, and with vehicle (DMSO) for one hour, respectively, prior to the treatment with Compound 5A for 24 hrs. The U937 cells were harvested after treatment and whole cell lysates were prepared. These lysates were analyzed by Western blot to determine the abundance of Mcl-1 as well as that of tubulin as a normalization control. […] The band intensity of the Mcl-1 in cells treated with cycloheximide alone (Lane 2) was reduced relative to that for tubulin. […] Global blockade of protein synthesis by cycloheximide led to a significant decrease in the expression levels, especially for short lived Mcl-1. The retention of a reduced portion of Mcl-1 indicated the immunity of this portion to proteasomal degradation. […] In contrast, the band intensity of Mcl-1 relative to that of tubulin increased upon treatment of U937 cells with the proteasome inhibitor MG132 (Lane 4). […] Together, the results of this Example are consistent with the compounds acting on the proposed mechanism that intracellular inhibition of the deubiquitylase activity of USP9X blocks its ability to rescue USP9X substrates such as Mcl-1 from proteasomal degradation. In other aspects, by varying the concentration ratios of the compound and proteasome inhibitor for treating cells, it was possible to achieve controlled degradation of a USP9X substrate so the substrate could decline to a desirable level rather than degrade entirely.

USP5 = USP5 (Homo sapiens (Human), UniProt P45974); conditions: cited from earlier work
Sequence of USP5 (P45974 whole entry, species assumed): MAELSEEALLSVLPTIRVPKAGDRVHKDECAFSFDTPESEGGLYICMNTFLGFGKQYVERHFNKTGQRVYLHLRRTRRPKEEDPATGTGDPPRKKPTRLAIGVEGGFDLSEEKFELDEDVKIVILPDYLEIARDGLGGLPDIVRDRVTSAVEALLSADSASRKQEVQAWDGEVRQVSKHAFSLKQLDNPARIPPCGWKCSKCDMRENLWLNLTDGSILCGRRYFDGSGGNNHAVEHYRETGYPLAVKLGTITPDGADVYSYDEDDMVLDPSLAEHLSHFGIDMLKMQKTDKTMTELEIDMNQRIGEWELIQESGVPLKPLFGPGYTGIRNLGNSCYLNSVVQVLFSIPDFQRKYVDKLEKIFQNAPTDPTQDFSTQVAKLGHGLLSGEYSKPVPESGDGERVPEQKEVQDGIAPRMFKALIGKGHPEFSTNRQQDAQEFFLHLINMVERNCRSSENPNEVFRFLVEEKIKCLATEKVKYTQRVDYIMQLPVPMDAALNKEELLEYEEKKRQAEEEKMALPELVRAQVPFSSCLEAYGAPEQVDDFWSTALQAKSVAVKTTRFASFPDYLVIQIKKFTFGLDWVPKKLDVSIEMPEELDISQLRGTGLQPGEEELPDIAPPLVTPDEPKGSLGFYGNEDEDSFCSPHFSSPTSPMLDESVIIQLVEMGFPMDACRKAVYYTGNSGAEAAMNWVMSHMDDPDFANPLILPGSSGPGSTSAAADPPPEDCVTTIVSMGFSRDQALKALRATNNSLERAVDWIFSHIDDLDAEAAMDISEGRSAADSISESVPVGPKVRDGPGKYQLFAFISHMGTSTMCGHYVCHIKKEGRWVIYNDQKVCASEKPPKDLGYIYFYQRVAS

USP24 = USP24 (Homo sapiens (Human), UniProt Q9UPU5); conditions: cited from earlier work
USP9X [1] = target: T1, USP9X (Homo sapiens (Human), UniProt Q93008); conditions: cited from earlier work
Target sequence in this assay (Q93008 whole entry, species assumed): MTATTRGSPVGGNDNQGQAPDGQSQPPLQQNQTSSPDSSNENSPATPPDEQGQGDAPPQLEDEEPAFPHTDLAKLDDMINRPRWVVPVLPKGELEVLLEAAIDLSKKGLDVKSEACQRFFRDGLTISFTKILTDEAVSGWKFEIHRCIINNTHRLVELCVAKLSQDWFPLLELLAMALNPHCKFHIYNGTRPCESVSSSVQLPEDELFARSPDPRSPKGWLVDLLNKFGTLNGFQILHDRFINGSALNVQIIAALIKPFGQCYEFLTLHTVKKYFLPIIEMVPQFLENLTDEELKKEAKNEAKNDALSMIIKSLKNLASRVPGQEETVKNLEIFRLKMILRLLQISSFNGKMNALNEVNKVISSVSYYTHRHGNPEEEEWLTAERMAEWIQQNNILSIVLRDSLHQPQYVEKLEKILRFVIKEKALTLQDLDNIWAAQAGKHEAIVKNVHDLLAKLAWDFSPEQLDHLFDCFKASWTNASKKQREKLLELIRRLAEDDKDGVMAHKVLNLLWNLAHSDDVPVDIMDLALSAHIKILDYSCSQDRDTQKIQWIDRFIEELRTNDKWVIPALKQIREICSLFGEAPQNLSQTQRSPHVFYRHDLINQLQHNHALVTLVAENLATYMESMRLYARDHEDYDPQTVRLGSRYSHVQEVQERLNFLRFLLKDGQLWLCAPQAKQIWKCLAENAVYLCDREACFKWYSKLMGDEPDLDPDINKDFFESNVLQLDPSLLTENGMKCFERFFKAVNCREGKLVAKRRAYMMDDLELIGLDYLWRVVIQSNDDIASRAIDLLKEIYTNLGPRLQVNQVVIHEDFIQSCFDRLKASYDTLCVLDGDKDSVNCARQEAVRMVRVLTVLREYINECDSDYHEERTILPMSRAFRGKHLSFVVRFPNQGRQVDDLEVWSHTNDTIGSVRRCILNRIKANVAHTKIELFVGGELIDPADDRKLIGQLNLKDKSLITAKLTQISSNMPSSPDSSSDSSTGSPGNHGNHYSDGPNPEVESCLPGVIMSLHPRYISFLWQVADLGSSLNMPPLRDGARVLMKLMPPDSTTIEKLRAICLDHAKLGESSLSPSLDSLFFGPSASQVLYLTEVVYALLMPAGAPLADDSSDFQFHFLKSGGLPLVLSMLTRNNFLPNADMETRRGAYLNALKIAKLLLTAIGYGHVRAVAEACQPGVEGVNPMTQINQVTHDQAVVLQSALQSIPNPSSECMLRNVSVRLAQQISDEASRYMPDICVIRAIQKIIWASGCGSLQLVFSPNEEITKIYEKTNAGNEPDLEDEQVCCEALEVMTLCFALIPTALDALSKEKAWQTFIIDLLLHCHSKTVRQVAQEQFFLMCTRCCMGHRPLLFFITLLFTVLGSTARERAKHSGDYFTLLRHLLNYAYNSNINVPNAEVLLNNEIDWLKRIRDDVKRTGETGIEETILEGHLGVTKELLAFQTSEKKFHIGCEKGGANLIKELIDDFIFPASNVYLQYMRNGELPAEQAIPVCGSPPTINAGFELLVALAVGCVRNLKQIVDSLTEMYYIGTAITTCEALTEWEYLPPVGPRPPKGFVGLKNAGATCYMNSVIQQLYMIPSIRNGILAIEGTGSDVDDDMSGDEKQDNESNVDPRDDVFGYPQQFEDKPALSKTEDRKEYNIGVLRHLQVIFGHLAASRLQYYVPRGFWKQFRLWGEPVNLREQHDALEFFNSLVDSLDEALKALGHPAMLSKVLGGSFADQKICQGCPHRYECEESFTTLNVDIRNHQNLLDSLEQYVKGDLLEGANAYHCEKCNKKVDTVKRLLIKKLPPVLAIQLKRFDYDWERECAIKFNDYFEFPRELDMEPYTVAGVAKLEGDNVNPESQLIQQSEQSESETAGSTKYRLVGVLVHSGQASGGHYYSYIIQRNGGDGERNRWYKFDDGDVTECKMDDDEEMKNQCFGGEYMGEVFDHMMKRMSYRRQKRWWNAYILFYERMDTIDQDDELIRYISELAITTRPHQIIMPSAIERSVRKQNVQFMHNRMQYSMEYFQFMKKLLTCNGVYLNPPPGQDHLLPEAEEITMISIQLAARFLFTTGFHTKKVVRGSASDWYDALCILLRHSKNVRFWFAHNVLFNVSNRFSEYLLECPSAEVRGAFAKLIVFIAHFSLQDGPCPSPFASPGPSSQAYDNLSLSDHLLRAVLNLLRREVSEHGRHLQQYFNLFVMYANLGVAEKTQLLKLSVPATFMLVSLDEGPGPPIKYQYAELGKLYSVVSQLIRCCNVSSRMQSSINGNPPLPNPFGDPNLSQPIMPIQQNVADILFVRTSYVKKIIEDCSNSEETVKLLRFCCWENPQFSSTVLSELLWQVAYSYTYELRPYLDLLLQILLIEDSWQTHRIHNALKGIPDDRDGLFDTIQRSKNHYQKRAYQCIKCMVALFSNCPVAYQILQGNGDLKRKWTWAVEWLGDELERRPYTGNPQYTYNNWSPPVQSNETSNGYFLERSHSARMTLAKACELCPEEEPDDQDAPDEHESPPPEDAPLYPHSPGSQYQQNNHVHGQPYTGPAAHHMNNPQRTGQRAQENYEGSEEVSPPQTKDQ

BT-549 cancer cells = test: WST-1 cell viability assay; format: cell-based, human; conditions: BT-549 cells
Method: (§1) Compound Compound 9A was tested for the ability to inhibit the proliferation of Mia-Paca-2 pancreatic cancer cells. Mia-Paca-2 and MDA-MB-231 cells were seeded into the wells of a 96 well tissue culture plate in complete medium (10% fetal calf serum) and incubated overnight at 37° C./5% CO2). The medium was exchanged for fresh medium containing varying concentrations of Compound 9A and the plate was incubated for 72 hours at 37° C./5% CO2. The viability of cells at the end of this incubation was assessed with the WST-1 reagent. To 10 ml of warm (37° C.) complete medium, 1 ml WST-1 reagent was added. The medium from the wells of the plate with the Mia-Paca-2 cells was removed and replaced with 100 μL of the WST-1 reagent in complete medium. The plate was incubated at 37 37° C./5% CO2. At timed intervals the absorbance at 450 nm was determined for each well in a UVNis plate reader. For each well the slope of the plot of the absorbance 450 nm vs time was determined. The readings were normalized to that of the wells for the untreated control and a dose-response curve was plotted. A fit to the data was made from a four parameter, variable slope program (GraphPad Prism) and the IC50 was determined.
(§2) The same procedures were also applied to the compounds Compound 7A, Compound 6A, and Compound 8A to test their inhibitory activities against RKO colon, Mia-Paca-2 pancreatic and BT-549 cancer cells.

[2] = test system: Mia-Paca-2 pancreatic cancer cells; test: WST-1 cell viability assay; format: cell-based; conditions: for cell viability: Mia-Paca-2 pancreatic cells
Method: as §1, §2

RKO colon cells = test: WST-1 cell viability assay; format: cell-based
Method: as §1, §2

U937 cells = test: WST-1 cell viability assay; format: cell-based; conditions: Homo sapiens, U-937, U937 cells
Method: as §1
The effect of Compound 7A on U937 cells was assessed using the same experiment described in the Inhibitory Activities against the Proliferation of Mia-Paca-2 and Other Cancer Cells section above. In response to treatment with Compound 7A, proliferation of U937 leukemia cells was inhibited and induced apoptosis was obsessed by trypan blue staining.
U937 cells were treated with the Bcl-2/Bcl-xL inhibitor ABT737 72 hours at varying concentrations and underwent western blot analysis.

MDA-MB-231 cells = test: WST-1 cell viability assay; format: cell-based; conditions: Homo sapiens
Method: as §1
The TNBC cell line MDA-MB-231 express high levels of Mcl-1 and USP9X in addition to Bcl-2 and Bcl-xL. MDA-MB-231 cells were treated with ABT737 for 72 hours at varying concentrations and underwent western blot analysis.

USP9X [3] = target: T1, USP9X; test: Steady-state enzyme inhibition kinetics of USP9X; format: biochemical
From the text: The data were fit to a general model for enzyme inhibition (FIG. 1E) so the values of the parameters determined from the assays specified the mode of inhibition. For example, in the case of α=1 and β=0, it corresponded to purely non-competitive inhibition. For α=infinity and p=1, it corresponded to purely competitive inhibition. The values of all the parameters, KS, KI, kcat, α, and β could be determined from the steady state measurements. The enzyme reactions were set up as described in the Inhibiting the catalytic activity of USP9X section. The concentration of the substrate ubqiutin-rhodamine110 was varied. The initial rates of the reactions were determined at several concentrations of the inhibitor Compound 2A. In order to determine the values of the parameters KS and kcat, the reaction rates in the absence of the inhibitor Compound 2A, the initial reaction rate data were fit to the standard Michaelis-Menten equation v=Vmax [S]/(Km+[S]). The values of α and β could then be determined by fitting the initial rate data of the enzyme reaction at various concentrations of Compound 2A to a modified version of the Michaelis-Menten equation, designating both Vmax and KS apparent to distinguish the apparent values of the parameters determined from these plots to the true values for these parameters determined from the steady state kinetics in the absence of Compound 2A. The values of α and β could be determined from the variation of the slopes and intercepts of the series of double reciprocal plots of 1/v versus 1/[S] for each concentration of Compound 2A. […] The two values determined for KI were from the two different plots.
The two values for KI were determined by two different methods for determining this parameter from the kinetic data: 1 represented a value determined from the slope of the 1/A intercept vs 1/[I] plot; 2 represented a value determined from the y intercept of the 1/A slope vs 1/[I] plot. […] Only the values of the parameters varied for the compounds.
Target sequence in this assay (Q93008 whole entry): as the sequence (Q93008 whole entry, species assumed) above

USP9X [4] = target: T1, USP9X; test: USP9X enzyme activity assay, ubiquitin-rhodamine110 substrate
Target sequence in this assay (Q93008 whole entry): as the sequence (Q93008 whole entry, species assumed) above
Method: The inhibition property of compound Compound 1A was evaluated in assays measuring the ability of USP9X to catalyze the hydrolysis of the amide bond between the C terminal carboxylate of ubiquitin and rhodamine110 of the fluorogenic substrate ubiquitin-rhodamine 110. To the wells of a 96 well reaction plate was added 12.5 μL USP9X solution (1.3 nM) in assay buffer (100 mM NaCl, 1 mM DTT, 0.1% bovine serum albumin, 0.05% Tween 20, 50 mM Tris, pH 7.5). 12.5 μL of Compound 1A in assay buffer (4×final concentration) was added to the wells containing the USP9X solution, and the solution was gently mixed by pipetting up and down several times. The plate was sealed and incubated at room temperature for 20 minutes.
Then 25 μL of the 1 μM substrate (ubiquitin-rhodaminel10) solution was added in assay buffer. The final substrate concentration was 0.5 μM. […] The slope for the rate of change of the fluorescence was determined and plotted vs the concentration of Compound 1A.
USP9X enzyme assays were set up in a 96 well plate to assess the abilities of Compound 3A and Compound 4A to inhibit the activity of USP9X, respectively. Ubiquitin-rhodamine110 was used as the substrate and ubiquitin aldehyde was included in the assay as a positive control.
Purified recombinant USPx9 (R&D Systems) in 50 mM Tris buffer pH 7.5, 1 mM DTT, 100 mM NaCl, 0.05% Tween 20 and 0/1% BSA is used at a concentration of 0.325 nM with 0.5 μM ubiquitin-rhodamine (R&D Systems).

[5] = 72 hours, single agent, read-out: IC50, cell viability
[6] = read-out: USP9X IC50/UM, Table 8

**Q.** For `CC(C)C[C@@H](C=O)NC(=O)[C@H](CC(C)C)NC(=O)[C@H](CC(C)C)NC(=O)OCc1ccccc1` [MG132, reference compound] (Cbz-Leu-Leu-Leu-aldehyde), which “band intensity of Mcl-1 relative to tubulin” value (Mcl-1) is on record?
**A.** Its value is “increased”.

**Q.** With `CCCC(NC(=O)/C(C#N)=C/c1nc(Cl)ccc1Cl)c1ccc(OCCN2CCOCC2)cc1` (centres unmarked) [EOAI3402143] as the compound, how does the “inhibits USP5” value (USP5) read?
**A.** The value was “inhibits”.

**Q.** And the “inhibits USP24” value (USP24)?
**A.** The value was “inhibits”.

**Q.** What about the “inhibits USP9X” value (USP9X [1]) of the same compound?
**A.** The value was “inhibits”.

**Q.** With `CN1CCCCOc2ccc(cc2)C(=O)NCc2ccc(F)c(c2)C(=O)N[C@@H](CC(C)(C)C)C(=O)Nc2ccc(cc2)CCC1=O` [Compound 8A] as the compound, how does the “cell viability” value (BT-549 cancer cells) read?
**A.** Its value is “significant decreases”.

**Q.** What about the “cell viability” value [2] of the same compound?
**A.** Its value is “significant decreases”.

**Q.** And the “cell viability” value (RKO colon cells)?
**A.** Its value is “significant decreases”.

**Q.** Which results are given for `CN1CCCCOc2ccc(cc2)C(=O)NCc2cccc(c2)C(=O)N[C@@H](CC(C)(C)C)C(=O)Nc2ccc(cc2)CCC1=O` [Compound 6A]?
**A.** cell viability (BT-549 cancer cells): significant decreases; cell viability [2]: significant decreases; cell viability (RKO colon cells): significant decreases

**Q.** With `CN(C)CC[C@H](CSc1ccccc1)Nc1ccc(S(=O)(=O)NC(=O)c2ccc(N3CCN(Cc4ccccc4-c4ccc(Cl)cc4)CC3)cc2)cc1[N+](=O)[O-]` [ABT737, reference compound] as the compound, how does the IC50 (U937 cells; 72-hour treatment, single agent, read-out: IC50, cell viability) read?
**A.** The IC50 was 3400 nM.

**Q.** And the IC50 (U937 cells; with 0.5 μM Compound 7A, read-out: IC50 of ABT737 with co-treatment)?
**A.** Its IC50 is 60 nM.

**Q.** And the IC50 (MDA-MB-231 cells; [5])?
**A.** The IC50 was 8700 nM.

**Q.** What about the IC50 (MDA-MB-231 cells; co-treated with 10 μM Compound 5A, read-out: IC50 of ABT737 with co-treatment) of the same compound?
**A.** Its IC50 is 1800 nM.

**Q.** Which “KS” value (USP9X [3]) does the source give for `CN1CCOc2ccc(c(F)c2)C(=O)NCc2ccc(F)c(c2)C(=O)N[C@@H](CC(C)(C)C)C(=O)Nc2ccc(cc2)CCN(C)C(=O)CC(C)(C)CC1=O` [Compound 11A] here?
**A.** Its value is 0.91 µM.

**Q.** What about the “VMAX RFU/min” value (USP9X [3]) of the same compound?
**A.** The value was 408 RFU/min.

**Q.** And the α (USP9X [3])?
**A.** The α was 2.

**Q.** What about the β (USP9X [3]) of the same compound?
**A.** The β was 0.88.

**Q.** And the Ki (USP9X [3]; from the slope of the 1/Δ intercept vs 1/[I] plot, read-out: KI, nM (1))?
**A.** Its Ki is 7 nM.

**Q.** And the Ki (USP9X [3]; from the y intercept of the 1/Δ slope vs 1/[I] plot, read-out: KI, nM (2))?
**A.** The Ki was 69 nM.

**Q.** What about the IC50 (USP9X [4]; read-out: IC50 for the inhibition of USP9X activity, ubiquitin-rhodamine110 substrate) of the same compound?
**A.** Its IC50 is 48 nM.

**Q.** What about the IC50 (USP9X [4]; read-out: USP9X IC50 nM, Table 2) of the same compound?
**A.** The IC50 was 48 nM.

**Q.** Which “band intensity of Mcl-1 relative to tubulin” value (Mcl-1) does the source give for `C[C@@H]1C[C@@H]([C@H](O)CC2CC(=O)NC(=O)C2)C(=O)[C@@H](C)C1` [cycloheximide, reference compound] here?
**A.** The value was “reduced”.

**Q.** Which IC50 ([2]; Homo sapiens, Mia-Paca-2 cells, 72 hours, read-out: IC50, inhibition of proliferation) does the source give for `CN1CCOc2ccc(c(F)c2)C(=O)NCc2cccc(c2)C(=O)N[C@@H](CC(C)(C)C)C(=O)Nc2ccc(cc2)CCN(C)C(=O)CC(C)(C)CC1=O` [Compound 9A] here?
**A.** The IC50 was 10 nM.

**Q.** And the IC50 (MDA-MB-231 cells; [5])?
**A.** The IC50 was 2000 nM.

**Q.** With `COc1ccc(C(=O)NCc2cccc(C(=O)N[C@@H](CC(C)(C)C)C(=O)Nc3ccc(CCN(C)C)cc3)c2)cc1` [Compound 44] as the compound, how does the IC50 (USP9X [4]; [6]) read?
**A.** The IC50 was 240 nM.

**Q.** Which IC50 (USP9X [4]; [6]) does the source give for `CNCCOc1ccc(C(=O)NCc2cccc(C(=O)N[C@@H](CC(C)(C)C)C(=O)Nc3ccc(CC(NC(=O)CC(C)(C)CC(=O)O)C(=O)OC)cc3)c2)cc1` (some centres unmarked) [Compound 1] here?
**A.** The IC50 was 530 nM.

**Q.** Which “effect on USP9X activity” value (USP9X [4]; ubiquitin-rhodamine110 substrate) does the source give for `CN1CCOc2ccc(cc2)C(=O)NCc2ccc(F)c(c2)C(=O)N[C@@H](CC(C)(C)C)C(=O)Nc2ccc(cc2)CCN(C)C(=O)CCC(C)(C)CCC1=O` [Compound 1A, (S)-5^4-fluoro-14,18,18,22-tetramethyl-S-neopentyl-25-oxa-3,7,10,14,22-pentaaza-1,11(1,4),5(1,3)-tribenzenacyclopentacosaphane-2,6,9,15,21-pentaone] here?
**A.** Its value is “partially inhibited”.

**Q.** Which IC50 (USP9X [4]; [6]) does the source give for `COC(=O)c1cccc(NC(=O)[C@H](CC(C)(C)C)NC(=O)c2cccc(CNC(=O)c3ccc(OCCN(C)C)cc3)c2)c1` [Compound 25] here?
**A.** The IC50 was 68 nM.
